Measured values taken from EP4786454A1, “HETEROARYL DERIVATIVE AND USE THEREOF” (priority 2023, dated 2025).
Read-outs that look alike come from different tables or passages of the source.

Legend:
male CD-1 mice = assay: Maximal electroshock-induced epilepsy model, behavioral pharmacodynamics; format: in vivo; details: 5 mg/kg orally, one hour before electrical stimulation
From the text: This study used behavioral tests in male CD-1 mice to investigate the effects of test compounds on acute epileptic seizures behavior induced by maximal electroshock.
Male CD-1 mice (25 to 35g) were used as the experimental animals and fed with standard feed (Beijing Vital River Laboratory Animal Technology Co., Ltd.).
After arriving at the animal facility, the experimental animals needed to acclimatize for at least one week. The mice were observed daily for vital signs, and randomly divided into groups according to their body weights one day before the drug administration. One hour before the electrical stimulation, different dosages of the test compound were orally administered to each group. On the day of the assay, the male CD-1 mice in each group were anesthetized locally at the cornea with 2% lidocaine. Then, silver bipolar electrodes were used to electrically stimulate the cornea of the mice with 18 mA, 60 Hz, a pulse width of 0.6 ms, and a stimulation time of 1 s to induce seizures. Subsequently, the latency of seizures and the duration of limb rigidity in mice after the electrical stimulation were observed, and the protection rate from seizures for each group was statistically analyzed.

[1] = Pharmacokinetic evaluation after single intravenous and gavage administration; details: mouse, in vivo, CD-1 mice, IV:0.5 PO:2 mg/kg
[2] = as above; details: mouse, in vivo, CD-1 mice, IV:1 PO:5 mg/kg
Procedure: Assay method: Mix a test compound with a mixture of 5% DMSO, 60% polyethylene glycol (PEG400) and 35% water, vortex and sonicate to prepare a clear solution of 0.2 mg/mL. Filter the solution through a microporous filter membrane for later use. Select the male CD-1 mice weighing 25 to 35 g, and administer a candidate compound solution to them via intravenous injection at a dosage of 1 mg/kg. After fasting, administer the candidate compound solution to them orally at a dosage of 5 mg/kg. After the administration to the animals, collect 25 µL of blood at 0.083, 0.25, 0.5, 1, 2, 4, 8, 12, and 24 hours, and place the blood in commercially available anticoagulant tubes pre-filled with EDTA-K2. Centrifuge the tubes for 10 minutes to separate the plasma, and store them at -60 °C. Determine the content of the target compound in the plasma samples by LC/MS/MS, and calculate the pharmacokinetic parameters using Phoenix WinNonlin software (Pharsight, USA).
Definition of each parameter: IV: intravenous injection; PO: oral administration; C0: instantaneous required concentration after intravenous injection; Cmax: peak plasma concentration after administration; Tmax: time required to reach the peak drug concentration after administration; T1/2: time required for plasma concentration to decrease by half; Vdss: apparent volume of distribution, which refers to the ratio constant between the amount of drug in the body and the plasma concentration when the drug reaches dynamic equilibrium in the body; Cl: clearance, which refers to the apparent volume of distribution of a drug cleared from the body per unit time; Tlast: time of the last test point; AUC0-last: area under the plasma concentration-time curve, which refers to the area enclosed by the plasma concentration curve on the time axis; F: a measure of the speed and extent to which a drug is absorbed into the blood circulation, which is an important indicator for evaluating the degree of drug absorption.
The purpose of this assay was to evaluate the pharmacokinetic behaviors after a single intravenous bolus and gavage administration of a compound, to investigate the bioavailability after the gavage administration, and to provide animal experimental data for clinical research.
CD-1 mice (male, 7 to 9 weeks old)
The pharmacokinetic characteristics of the compounds after intravenous and oral administration were assayed in rodents using a standard protocol. In the assay, a candidate compound was prepared into a clear solution and administered to mice via single intravenous and oral administration. The solvent for both intravenous and oral administration was a mixed solvent prepared with 5% DMSO, 60% PEG400, and 35% water. Four female CD-1 mice were used in this project. Two mice were administered intravenously, and plasma samples were collected at 0.083, 0.25, 0.5, 1, 2, 4, 8 and 24 h after the administration. The other two mice were administered orally via gavage, and plasma samples were collected at 0.25, 0.5, 1, 2, 4, 8 and 24 h after the administration. The plasma samples were […] at 4 °C and 3,200 × g for 10 min, and the supernatants were separated to give plasma samples. 20 times the volume of methanol solution containing internal standard was added to precipitate the proteins. After centrifugation at 12,000 × g for 15 min at 4 °C, 50 µL of the supernatant was taken and transferred to a 96-well plate, and centrifuged a second time, and the resulting supernatant was injected for analysis. The plasma concentration was quantitatively analyzed by LC-MS/MS method, and the pharmacokinetic parameters such as peak concentration (Cmax), clearance (CL), half-life (T1/2), […] (Vdss), area under the plasma concentration-time curve (AUC0-last), and bioavailability (F) were calculated.

[3] = read-out: Area under the plasma concentration-time curve AUC0-last PO
[4] = read-out: Half-life T1/2 (IV) (converted)
[5] = read-out: Peak concentration Cmax
[6] = read-out: Tissue distribution Vdss

Structure (SMILES) | Protection rate from seizures (male CD-1 mice) [%] | AUC(0-t) [1, 3] [µM·h] | bioavailability ([1]; read-out: Bioavailability F) [%] | clearance ([1]; read-out: Clearance CL) [mL/min/kg] | half-life [1, 4] [min] | Cmax [1, 5] [nM] | Vd [1, 6] [L/kg] | AUC(0-t) [2, 3] [µM·h] | bioavailability ([2]; read-out: Bioavailability F) [%] | clearance ([2]; read-out: Clearance CL) [mL/min/kg] | half-life [2, 4] [min] | Cmax [2, 5] [nM] | Vd [2, 6] [L/kg]
CC(C)(C)CC(=O)Nc1nc2c(F)cc(C#N)cn2c1C1=CCCC1 [Compound 3] | 66.7 | 2.35 | 57.3 | 25.6 | 30 | 1150 | 0.94 | – | – | – | – | – | –
CC(C)(C)CC(=O)Nc1nc2c(F)cc(C#N)cn2c1-c1ccc(OC(F)(F)F)cc1 [Compound 1] | 66.7 | – | – | – | – | – | – | 1.41 | 51.1 | 67.8 | 52.8 | 355 | 4.89
